Assay results as given in US8841343B2, “Composition for repelling mosquitoes” (Bio & Hnt, Inc., priority 2006, dated 2014).

System: Aedes aegypti
Assay: Examination of repellent activity using skin test (treated human forearm in cage of about 100 mated female mosquitoes)
Format: in vivo
Details: for Effective repellency duration (hour) (mean ± standard deviation): maximum measurement time 12 hours
Source text: Citronellic acid and geranic acid, which are used in the present invention, are commercially available or can directly be synthesized. In this embodiment, products of Aldrich Co. (product names are respectively Citronellic acid and Geranic acid) were purchased and used as citronellic acid and geranic acid. Purities of the above two compounds were examined using a gas chromatograph (GC) and a gas chromatograph-mass spectrometry (GC-MS). The compounds having purity of 99.5% or greater were only used. Respective ingredients of the above compounds were added to isopropyl alcohol of 91% to make test samples consisting of a solution in the concentration of 0.5 to 50%. The samples were used for mosquito repellent efficacy experiments.
The test samples manufactured as above underwent repellent effective experiments with respect to Aedes which is a main mosquito group attacking human.
In this embodiment, Aedes aegypti was used as test mosquitoes. The Aedes aegypti was supplied from Korea Research Institute of Bioscience and Biotechnology and reared indoor from generation to generation.
The larvae of the Aedes aegypti were reared in a plastic container of 22×14×7 cm containing distilled water with small amount of one-to-one mixture of chicken feed and yeast. Fresh mosquito pupae were transferred into a paper cup containing water and then placed in a transparent rearing cage to emerge as adults. Here, the rearing cage was constructed with metal net. Males and females of the freshly emerged mosquitoes were transferred to a rearing cage at one-to-one ratio, and left for two or three days for mating. The female mosquitoes were then used for repellency tests. Eight percent (8%) sugar water was supplied for the adult mosquitoes. The following rearing conditions were maintained: light condition of 16 h:8 h (day:night), temperature of 27±2° C., and relative humidity of 80±10%.
In order to examine effectiveness of the mosquito repellent of the prepared sample solutions, one (1) ml of a sample solution was uniformly applied, using a metal rod, on a forearm of a volunteer human test subject between wrist and elbow. Thereafter, the arm treated with the test solution was inserted in a bioassay cage, constructed with Plexiglass of 50×50×50 cm containing approximately 100 mated female mosquitoes. The number of mosquitoes trying to bite was recorded for three minutes in every thirty minutes for up to 4 hours or in every hour for up to 12 hours. The time required to get the arm bitten by two cumulative mosquitoes was regarded as effective repellency duration. A net window of 40×40 cm was present at each side and top of the Plexiglass bioassay cage to allow air ventilation. A 15×15 cm hole was prepared at the front side of the Plexiglass bioassay cage and a long net sleeve was attached to the hole so that the test arm could be put into the cage for repellency test.
At the beginning of each repellency test, an arm treated with no solvent was placed in the bioassay cage containing mosquitoes, in order to examine blood feeding activity of the mated female test mosquitoes. The repellency tests with the test solutions were carried out only when the arm was bitten by at least two mosquitoes for initial three minutes.
Repellent activity against Aedes was examined in accordance with the aforementioned method using the samples which respectively contain citronellic acid and geranic acid. Also, mosquito repellent activity was measured with solutions which contain DEET and Picadirin, wherein the DEET and Picadirin are commercially available mosquito repellents which are currently recommended by the Center for Disease Control of the United States.
In Table 4 to Table 6, the repellent efficiency was calculated using the following Equation 1.

CC(C)=CCC/C(C)=C/C(=O)O [Geranic acid, geranic acid]
Repellent efficiency (%) per time (minutes) (2% (0.05 mg/cm^3), 30 minutes): 100% | Repellent efficiency (%) per time (minutes) (2% (0.05 mg/cm^3), 60 minutes): 100% | Repellent efficiency (%) per time (minutes) (2% (0.05 mg/cm^3), 90 minutes): 100% | Repellent efficiency (%) per time (minutes) (2% (0.05 mg/cm^3), 120 minutes): 100% | Repellent efficiency (%) per time (minutes) (2% (0.05 mg/cm^3), 150 minutes): 83.3% | Repellent efficiency (%) per time (minutes) (2% (0.05 mg/cm^3), 180 minutes): 50.0% | Repellent efficiency (%) per time (minutes) (2% (0.05 mg/cm^3), 210 minutes): 50.0% | Repellent efficiency (%) per time (minutes) (2% (0.05 mg/cm^3), 240 minutes): 33.3% | Repellent efficiency (%) per time (minutes) (10% (0.25 mg/cm^3), 30 minutes): 100% | Repellent efficiency (%) per time (minutes) (10% (0.25 mg/cm^3), 60 minutes): 100% | Repellent efficiency (%) per time (minutes) (10% (0.25 mg/cm^3), 90 minutes): 100% | Repellent efficiency (%) per time (minutes) (10% (0.25 mg/cm^3), 120 minutes): 100% | Repellent efficiency (%) per time (minutes) (10% (0.25 mg/cm^3), 150 minutes): 100% | Repellent efficiency (%) per time (minutes) (10% (0.25 mg/cm^3), 180 minutes): 100% | Repellent efficiency (%) per time (minutes) (10% (0.25 mg/cm^3), 210 minutes): 100% | Repellent efficiency (%) per time (minutes) (10% (0.25 mg/cm^3), 240 minutes): 87.5% | Repellent efficiency (%) per time (hours) (15% (0.375 mg/cm^3), 1 hour): 100% | Repellent efficiency (%) per time (hours) (15% (0.375 mg/cm^3), 2 hours): 100% | Repellent efficiency (%) per time (hours) (15% (0.375 mg/cm^3), 3 hours): 100% | Repellent efficiency (%) per time (hours) (15% (0.375 mg/cm^3), 4 hours): 81.8% | Repellent efficiency (%) per time (hours) (15% (0.375 mg/cm^3), 5 hours): 72.7% | Repellent efficiency (%) per time (hours) (15% (0.375 mg/cm^3), 6 hours): 54.5% | Repellent efficiency (%) per time (hours) (15% (0.375 mg/cm^3), 7 hours): 54.5% | Repellent efficiency (%) per time (hours) (15% (0.375 mg/cm^3), 8 hours): 54.5% | Repellent efficiency (%) per time (hours) (15% (0.375 mg/cm^3), 9 hours): 45.5% | Repellent efficiency (%) per time (hours) (30% (0.75 mg/cm^3), 1 hour): 100% | Repellent efficiency (%) per time (hours) (30% (0.75 mg/cm^3), 2 hours): 100% | Repellent efficiency (%) per time (hours) (30% (0.75 mg/cm^3), 3 hours): 100% | Repellent efficiency (%) per time (hours) (30% (0.75 mg/cm^3), 4 hours): 100% | Repellent efficiency (%) per time (hours) (30% (0.75 mg/cm^3), 5 hours): 100% | Repellent efficiency (%) per time (hours) (30% (0.75 mg/cm^3), 6 hours): 85.7% | Repellent efficiency (%) per time (hours) (30% (0.75 mg/cm^3), 7 hours): 85.7% | Repellent efficiency (%) per time (hours) (30% (0.75 mg/cm^3), 8 hours): 85.7% | Repellent efficiency (%) per time (hours) (30% (0.75 mg/cm^3), 9 hours): 85.7% | Repellent efficiency (%) per time (hours) (30% (0.75 mg/cm^3), 10 hours): 85.7% | Repellent efficiency (%) per time (hours) (30% (0.75 mg/cm^3), 11 hours): 78.6% | Repellent efficiency (%) per time (hours) (30% (0.75 mg/cm^3), 12 hours): 71.4% | Repellent efficiency (%) per time (hours) (50% (1.25 mg/cm^3), 1 hour): 100% | Repellent efficiency (%) per time (hours) (50% (1.25 mg/cm^3), 2 hours): 100% | Repellent efficiency (%) per time (hours) (50% (1.25 mg/cm^3), 3 hours): 100% | Repellent efficiency (%) per time (hours) (50% (1.25 mg/cm^3), 4 hours): 100% | Repellent efficiency (%) per time (hours) (50% (1.25 mg/cm^3), 5 hours): 100% | Repellent efficiency (%) per time (hours) (50% (1.25 mg/cm^3), 6 hours): 100% | Repellent efficiency (%) per time (hours) (50% (1.25 mg/cm^3), 7 hours): 100% | Repellent efficiency (%) per time (hours) (50% (1.25 mg/cm^3), 8 hours): 100% | Repellent efficiency (%) per time (hours) (50% (1.25 mg/cm^3), 9 hours): 100% | Repellent efficiency (%) per time (hours) (50% (1.25 mg/cm^3), 10 hours): 100% | Repellent efficiency (%) per time (hours) (50% (1.25 mg/cm^3), 11 hours): 90% | Repellent efficiency (%) per time (hours) (50% (1.25 mg/cm^3), 12 hours): 80% | repellency (in words) (at the level of 0.0125 mg/cm^3): did not represent any repellency | time for which repellent efficiency of 100% was shown (at the level of 0.05 mg/cm^3): 120 min | time for which repellent efficiency of 100% was shown (at the level of 0.25 mg/cm^3): 210 min | Effective repellency duration (minute) (mean ± standard deviation) (concentration 0.5% (0.0125 mg/cm^3), time until arm bitten by two cumulative mosquitoes): 0 ± 0 min | Effective repellency duration (minute) (mean ± standard deviation) (concentration 2% (0.05 mg/cm^3), time until arm bitten by two cumulative mosquitoes): 195 ± 45.0 min | Effective repellency duration (minute) (mean ± standard deviation) (concentration 2% (0.05 mg/cm^3), time until arm bitten by two cumulative mosquitoes, listed as geranic acid): 195 min | Effective repellency duration (minute) (mean ± standard deviation) (concentration 10% (0.25 mg/cm^3), time until two cumulative bites, maximum measurement time 240 minutes): 240 ± 0 min | Effective repellency duration (minute) (mean ± standard deviation) (concentration 10% (0.25 mg/cm^3), time until two cumulative bites, maximum measurement time 240 minutes, listed as geranic acid): 240 min | Effective repellency duration (hour) (mean ± standard deviation) (concentration 15% (0.375 mg/cm^3)): 6.7 ± 1.20 h | Effective repellency duration (hour) (mean ± standard deviation) (concentration 30% (0.75 mg/cm^3)): 10.0 ± 2.00 h | Effective repellency duration (hour) (mean ± standard deviation) (concentration 30% (0.75 mg/cm^3), listed as geranic acid): 10 h | Effective repellency duration (hour) (mean ± standard deviation) (concentration 50% (1.25 mg/cm^3)): 12.0 ± 0 h | Effective repellency duration (hour) (mean ± standard deviation) (concentration 50% (1.25 mg/cm^3), listed as geranic acid): 12 h | repellent efficiency (for 10 hours at the level of 0.75 mg/cm^3): ~90% | repellent efficiency (for 10 hours at the level of 1.25 mg/cm^3): 100%
